Like-named read-outs stand apart in the source and are kept apart here.
Molecular target: T1, IRAK4 (Homo sapiens, UniProt Q9NWZ3)
T1 construct: Degradation of IRAK4 in OCI-LY10 was quantitatively measured using Meso Scale Discovery technology; endogenous in cells; host or cells: OCI-LY10
T1 sequence (Q9NWZ3 1-460): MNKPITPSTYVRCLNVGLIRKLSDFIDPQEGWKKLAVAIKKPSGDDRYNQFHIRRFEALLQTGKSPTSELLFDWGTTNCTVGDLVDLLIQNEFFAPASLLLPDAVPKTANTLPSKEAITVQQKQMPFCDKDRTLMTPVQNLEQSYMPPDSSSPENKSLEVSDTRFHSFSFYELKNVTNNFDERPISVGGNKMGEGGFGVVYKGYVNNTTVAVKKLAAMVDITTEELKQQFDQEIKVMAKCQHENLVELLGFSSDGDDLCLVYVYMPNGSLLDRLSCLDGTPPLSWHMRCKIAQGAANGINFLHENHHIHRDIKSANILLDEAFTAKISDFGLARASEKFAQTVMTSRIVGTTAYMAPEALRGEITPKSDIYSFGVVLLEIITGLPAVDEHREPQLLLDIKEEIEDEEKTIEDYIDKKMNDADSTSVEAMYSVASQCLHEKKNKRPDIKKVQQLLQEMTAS
Assay: IRAK4 MSD Degradation in OCI-LY10
Assay type: cell-based
Conditions: OCI-LY10 cells, MSD
Method in brief: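 OCI-LY10 cells exposed to 8-point 1:3 compound series (top 1 to 10 μM) for 4 to 24 h at 37 °C, 5% CO2. Lysate IRAK4 quantified by MSD sandwich immunoassay. DC50 from three-parameter logistic fit, binned A (<0.01 μM) to D (>0.2 μM or not tested).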

[1] = 4 hrs incubation, read-out: IRAK4 degradation in OCI-LY10 at 4 hrs: DC50
[2] = 24 hrs incubation, read-out: IRAK4 degradation in OCI-LY10 at 24 hrs: DC50

DC50 [1] | DC50 [2] | Compound
> 200 nM | < 10 nM | Cc1cccc(C(=O)Nc2cc3cn([C@H]4CC[C@H](CN5CC[C@@H](c6cccc7c6n(C)c(=O)n7C6CCC(=O)NC6=O)[C@H](F)C5)CC4)nc3cc2C(C)(C)O)n1 (stereo partly drawn) [I-645]
> 200 nM | > 200 nM | Cn1c(=O)n(C2CCC(=O)NC2=O)c2cccc(C#CCO[C@@H]3CCN(C[C@H]4CC[C@H](n5cc(NC(=O)c6cnn7ccc(N8CCS(=O)(=O)CC8)nc67)c(C(F)F)n5)CC4)C[C@@H]3F)c21 (stereo partly drawn) [I-589]
< 10 nM | > 200 nM | Cn1c(=O)n(C2CCC(=O)NC2=O)c2cccc(C#CCN3CCN(C[C@H]4CC[C@H](n5cc(NC(=O)c6cnn7ccc(N8CCCC8)nc67)c(C(F)F)n5)CC4)CC3)c21 (stereo partly drawn) [I-103]
100 to 200 nM | > 200 nM | Cn1c(=O)n(C2CCC(=O)NC2=O)c2cccc(C#CCN3CC4COCC(C3)N4C[C@H]3CC[C@H](n4cc(NC(=O)c5cnn6ccc(N7C[C@H]8C[C@@H]7CO8)nc56)c(C(F)F)n4)CC3)c21 (stereo partly drawn) [I-348]
10 to 100 nM | > 200 nM | Cn1c(=O)n(C2CCC(=O)NC2=O)c2cccc(C#CCN3CCN(C[C@H]4CC[C@H](n5cc(NC(=O)c6cnn7ccc(C8CCC8)nc67)c(C(F)F)n5)CC4)CC3)c21 (stereo partly drawn) [I-109]
> 200 nM | 10 to 100 nM | CN(C)c1ccn2ncc(C(=O)Nc3cn([C@H]4CC[C@H](CN(C)C5CCN(c6cccc7c6n(C)c(=O)n7C6CCC(=O)NC6=O)CC5(F)F)CC4)nc3C(F)F)c2n1 (stereo partly drawn) [I-484]
> 200 nM | > 200 nM | O=C1CCN(c2cccc(C#CCOC3CCN(C[C@H]4CC[C@H](n5cc(NC(=O)c6cnn7ccc(N8C[C@H]9C[C@@H]8CO9)nc67)c(C(F)F)n5)CC4)CC3)c2)C(=O)N1 [I-209]
> 200 nM | > 200 nM | O=C1CCN(c2cccc(C#CCN3CCN(C[C@H]4CC[C@@H](n5cc(NC(=O)c6cnn7ccc(N8CC9CC(C8)O9)nc67)c(C(F)F)n5)CC4)CC3)c2)C(=O)N1 [I-436]
> 200 nM | > 200 nM | Cn1c(=O)n(C2CCC(=O)NC2=O)c2cccc([C@@H]3CCN(C[C@H]4CC[C@H](n5cc6cc(NC(=O)c7cccc(C#N)n7)ncc6n5)CC4)C[C@@H]3F)c21 (stereo partly drawn) [I-636]
> 200 nM | > 200 nM | COc1cc2nn([C@H]3CC[C@H](CN4CCC5(CC4)CCN(c4cccc6c4n(C)c(=O)n6C4CCC(=O)NC4=O)CC5)CC3)cc2cc1NC(=O)c1cncc(C(C)(C)C#N)c1 (stereo partly drawn) [I-185]
> 200 nM | 10 to 100 nM | CN(C[C@H]1CC[C@H](n2cc(NC(=O)c3cnn4ccc(N5C[C@@H]6C[C@H]5CO6)nc34)c(C(F)F)n2)CC1)C1CCN(c2cccc3c2n(C)c(=O)n3C2CCC(=O)NC2=O)CC1(F)F (stereo partly drawn) [I-523]
> 200 nM | > 200 nM | Cn1c(=O)n(C2CCC(=O)NC2=O)c2cccc(CN3CC4(CCN(Cc5ccc(-n6cc(NC(=O)c7cnn8ccc(N9C[C@H]%10C[C@@H]9CO%10)nc78)c(C(F)F)n6)cc5)CC4)C3)c21 (stereo partly drawn) [I-402]
> 200 nM | < 10 nM | COc1cc2nn([C@H]3CC[C@H](CN4CCC5(CC4)CCN(c4cccc6c4n(C)c(=O)n6C4CCC(=O)NC4=O)CC5)CC3)cc2cc1NC(=O)c1cc(F)cc(C#N)c1 (stereo partly drawn) [I-247]
< 10 nM | > 200 nM | O=C1CCN(c2cncc3c(N4CCN(C5CCN(C[C@H]6CC[C@H](n7cc(NC(=O)c8cnn9ccc(N%10C[C@H]%11C[C@@H]%10CO%11)nc89)c(C(F)F)n7)CC6)CC5)CC4)cccc23)C(=O)N1 [I-76]
> 200 nM | > 200 nM | Cn1c(=O)n(C2CCC(=O)NC2=O)c2cccc([C@H]3C[C@@H]3CN3CCN(C[C@H]4CC[C@H](n5cc(NC(=O)c6cnn7ccc(N8C[C@H]9CC8CO9)nc67)c(C(F)F)n5)CC4)CC3)c21 (stereo partly drawn) [I-573]
> 200 nM | 10 to 100 nM | COc1cc2nn([C@H]3CC[C@H](CN(C)C4CCN(c5cccc6c5n(C)c(=O)n6C5CCC(=O)NC5=O)CC4(F)F)CC3)cc2cc1NC(=O)c1cccc(C(F)(F)F)n1 (stereo partly drawn) [I-710]
> 200 nM | > 200 nM | COc1cc2nn([C@H]3CC[C@H](CN(C)C4CCN(c5cccc6c5n(C)c(=O)n6C5CCC(=O)NC5=O)CC4F)CC3)cc2cc1NC(=O)c1cccc(C(F)(F)F)n1 (stereo partly drawn) [I-556]
> 200 nM | > 200 nM | CN(C[C@H]1CC[C@H](n2cc(NC(=O)c3cnn4ccc(N5CCCCCC5)nc34)c(C(F)F)n2)CC1)C1CCN(c2cccc3c2n(C)c(=O)n3C2CCC(=O)NC2=O)CC1(F)F (stereo partly drawn) [I-543]
> 200 nM | > 200 nM | Cn1c(=O)n(C2CCC(=O)NC2=O)c2cccc(C#CCOC3C[C@H]4CC[C@@H](C3)N4C[C@H]3CC[C@H](n4cc(NC(=O)c5cnn6ccc(N7C[C@H]8C[C@@H]7CO8)nc56)c(C(F)F)n4)CC3)c21 (stereo partly drawn) [I-12]
> 200 nM | 10 to 100 nM | Cc1ccc(-c2nn([C@H]3CC[C@H](CN4CCC(OCC#Cc5cccc6c5n(C)c(=O)n6C5CCC(=O)NC5=O)CC4)CC3)cc2NC(=O)c2cnn3cccnc23)nc1 (stereo partly drawn) [I-173]
> 200 nM | > 200 nM | CO[C@@H]1CN(c2cccc3c2n(C)c(=O)n3C2CCC(=O)NC2=O)CC[C@@H]1N(C)C[C@H]1CC[C@H](n2cc3cc(NC(=O)c4cccc(C(F)(F)F)n4)ccc3n2)CC1 (stereo partly drawn) [I-497]
< 10 nM | > 200 nM | Cn1c(=O)n(C2CCC(=O)NC2=O)c2cccc([C@]34C[C@](CN5CCN(C[C@H]6CC[C@H](n7cc(NC(=O)c8cnn9ccc(N%10C[C@H]%11C[C@@H]%10CO%11)nc89)c(C(F)F)n7)CC6)CC5)(C3)C4)c21 (stereo partly drawn) [I-8]
> 200 nM | > 200 nM | CN1C(=O)CCC(n2c(=O)n(C)c3c(C#CCN4CCN(C[C@H]5CC[C@H](n6cc(NC(=O)c7cnn8ccc(N9C[C@H]%10C[C@@H]9CO%10)nc78)c(C(F)F)n6)CC5)CC4)cccc32)C1=O (stereo partly drawn) [I-43]
> 200 nM | > 200 nM | Cn1c(=O)n(C2CCC(=O)NC2=O)c2cccc([C@H]3CCN(C[C@H]4CC[C@H](n5cc6cc(NC(=O)c7cccc(C#N)n7)ccc6n5)CC4)C[C@H]3F)c21 (stereo partly drawn) [I-627]
< 10 nM | > 200 nM | Cn1c(=O)n(C2CCC(=O)NC2=O)c2cccc(N3CCN(CC4CCN(C[C@H]5CC[C@H](n6cc(NC(=O)c7cnn8ccc(N9C[C@H]%10C[C@@H]9CO%10)nc78)c(C(F)F)n6)CC5)CC4)CC3)c21 (stereo partly drawn) [I-163]
> 200 nM | > 200 nM | Cn1c(=O)n(C2CCC(=O)NC2=O)c2cccc(C#CCN3CCN(C[C@H]4CC[C@H](n5cc(NC(=O)c6cnn7ccc([C@H]8CCOC8)nc67)c(C(F)F)n5)CC4)CC3)c21 (stereo partly drawn) [I-354]
> 200 nM | > 200 nM | O=C1CCC(c2cncc3c(C#CCN4CCN(C[C@H]5CC[C@@H](n6cc(NC(=O)c7cnn8ccc(N9C[C@H]%10C[C@@H]9CO%10)nc78)c(C(F)F)n6)CC5)CC4)cccc23)C(=O)N1 (stereo partly drawn) [I-251]
> 200 nM | > 200 nM | O=C1CCN(c2cc(C#CCOC3CCN(C[C@H]4CC[C@H](n5cc(NC(=O)c6cnn7ccc(N8C[C@H]9C[C@@H]8CO9)nc67)c(C(F)F)n5)CC4)CC3)ccc2Cl)C(=O)N1 [I-256]
> 200 nM | > 200 nM | Cn1c(=O)n(C2CCC(=O)NC2=O)c2cccc(C#CCOC3CCN(CC4CCN(c5nc(C(F)F)c(NC(=O)c6cnn7ccc(N8C[C@H]9C[C@@H]8CO9)nc67)o5)CC4)CC3)c21 (stereo partly drawn) [I-208]
> 200 nM | < 10 nM | Cn1c(=O)n(C2CCC(=O)NC2=O)c2cccc(OC3CCN([C@H]4CC[C@H](n5cc6cc(NC(=O)c7cccc(C(F)(F)F)n7)ncc6n5)CC4)CC3)c21 (stereo partly drawn) [I-740]

— patent publication US12091411B2, “IRAK degraders and uses thereof” (Kymera Therapeutics, Inc., priority 2022, dated 2024)
